Laboratory results from patent US9458110B2, “Phenylpyrazole derivatives as potent ROCK1 and ROCK2 inhibitors” (BRISTOL-MYERS SQUIBB COMPANY, priority 2013, dated 2016).

Tests used:
ROCK2 = ROCK2 (Homo sapiens (Human), UniProt O75116); experiment: ROCK assay (Caliper LABCHIP peptide phosphorylation), ROCK2; assay type: biochemical; details: 5 μM ATP, 1.5 μM peptide substrate;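 note: reaction stopped with EDTA, then phosphorylated and unphosphorylated peptide resolved by microfluidic electrophoresis, kinase inhibition computed at each compound concentration in dose-response series, DMSO under 2%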
ROCK1 = ROCK1 (Homo sapiens (Human), UniProt Q13464); experiment: ROCK assay (Caliper LABCHIP peptide phosphorylation), ROCK1; assay type: biochemical; details: 5 μM ATP, 1.5 μM peptide substrate;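 note: Read-out is separation of phosphorylated from unphosphorylated peptide, with kinase activity inhibition computed at every concentration of a dose-response series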
Chain of ROCK1 (Q13464 whole entry, species assumed): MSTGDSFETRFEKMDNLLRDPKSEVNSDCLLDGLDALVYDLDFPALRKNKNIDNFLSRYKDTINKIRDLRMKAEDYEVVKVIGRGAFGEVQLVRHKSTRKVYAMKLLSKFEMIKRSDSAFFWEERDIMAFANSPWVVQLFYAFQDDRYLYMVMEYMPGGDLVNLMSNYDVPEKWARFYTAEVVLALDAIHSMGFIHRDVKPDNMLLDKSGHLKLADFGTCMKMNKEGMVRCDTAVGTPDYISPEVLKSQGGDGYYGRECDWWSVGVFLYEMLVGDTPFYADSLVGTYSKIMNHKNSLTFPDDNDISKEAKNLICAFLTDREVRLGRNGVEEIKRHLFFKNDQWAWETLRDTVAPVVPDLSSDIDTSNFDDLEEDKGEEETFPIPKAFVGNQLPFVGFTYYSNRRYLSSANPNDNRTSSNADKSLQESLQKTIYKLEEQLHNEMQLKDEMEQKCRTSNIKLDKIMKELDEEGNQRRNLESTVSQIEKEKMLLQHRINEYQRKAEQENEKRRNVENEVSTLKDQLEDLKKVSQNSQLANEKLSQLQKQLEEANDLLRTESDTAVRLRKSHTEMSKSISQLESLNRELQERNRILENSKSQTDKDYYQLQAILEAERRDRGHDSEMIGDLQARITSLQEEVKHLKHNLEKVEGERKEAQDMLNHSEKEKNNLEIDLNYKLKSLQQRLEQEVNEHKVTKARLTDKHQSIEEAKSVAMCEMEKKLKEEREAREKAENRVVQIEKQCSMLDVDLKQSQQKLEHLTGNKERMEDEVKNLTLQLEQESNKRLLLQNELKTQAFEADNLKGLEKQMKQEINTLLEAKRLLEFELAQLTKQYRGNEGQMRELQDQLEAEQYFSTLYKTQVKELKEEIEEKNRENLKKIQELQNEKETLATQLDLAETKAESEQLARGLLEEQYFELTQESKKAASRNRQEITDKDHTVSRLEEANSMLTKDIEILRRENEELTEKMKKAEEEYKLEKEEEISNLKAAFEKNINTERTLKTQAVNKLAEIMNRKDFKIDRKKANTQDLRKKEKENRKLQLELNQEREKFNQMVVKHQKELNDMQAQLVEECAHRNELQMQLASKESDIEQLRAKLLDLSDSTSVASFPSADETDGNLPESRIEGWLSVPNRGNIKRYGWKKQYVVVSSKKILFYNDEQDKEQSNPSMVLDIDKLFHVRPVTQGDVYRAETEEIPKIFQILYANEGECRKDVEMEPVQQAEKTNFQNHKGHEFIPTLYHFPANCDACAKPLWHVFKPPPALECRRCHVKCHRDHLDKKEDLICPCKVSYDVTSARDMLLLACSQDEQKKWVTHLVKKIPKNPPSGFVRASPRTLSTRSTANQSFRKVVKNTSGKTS

Chain of ROCK2 (O75116 whole entry, species assumed): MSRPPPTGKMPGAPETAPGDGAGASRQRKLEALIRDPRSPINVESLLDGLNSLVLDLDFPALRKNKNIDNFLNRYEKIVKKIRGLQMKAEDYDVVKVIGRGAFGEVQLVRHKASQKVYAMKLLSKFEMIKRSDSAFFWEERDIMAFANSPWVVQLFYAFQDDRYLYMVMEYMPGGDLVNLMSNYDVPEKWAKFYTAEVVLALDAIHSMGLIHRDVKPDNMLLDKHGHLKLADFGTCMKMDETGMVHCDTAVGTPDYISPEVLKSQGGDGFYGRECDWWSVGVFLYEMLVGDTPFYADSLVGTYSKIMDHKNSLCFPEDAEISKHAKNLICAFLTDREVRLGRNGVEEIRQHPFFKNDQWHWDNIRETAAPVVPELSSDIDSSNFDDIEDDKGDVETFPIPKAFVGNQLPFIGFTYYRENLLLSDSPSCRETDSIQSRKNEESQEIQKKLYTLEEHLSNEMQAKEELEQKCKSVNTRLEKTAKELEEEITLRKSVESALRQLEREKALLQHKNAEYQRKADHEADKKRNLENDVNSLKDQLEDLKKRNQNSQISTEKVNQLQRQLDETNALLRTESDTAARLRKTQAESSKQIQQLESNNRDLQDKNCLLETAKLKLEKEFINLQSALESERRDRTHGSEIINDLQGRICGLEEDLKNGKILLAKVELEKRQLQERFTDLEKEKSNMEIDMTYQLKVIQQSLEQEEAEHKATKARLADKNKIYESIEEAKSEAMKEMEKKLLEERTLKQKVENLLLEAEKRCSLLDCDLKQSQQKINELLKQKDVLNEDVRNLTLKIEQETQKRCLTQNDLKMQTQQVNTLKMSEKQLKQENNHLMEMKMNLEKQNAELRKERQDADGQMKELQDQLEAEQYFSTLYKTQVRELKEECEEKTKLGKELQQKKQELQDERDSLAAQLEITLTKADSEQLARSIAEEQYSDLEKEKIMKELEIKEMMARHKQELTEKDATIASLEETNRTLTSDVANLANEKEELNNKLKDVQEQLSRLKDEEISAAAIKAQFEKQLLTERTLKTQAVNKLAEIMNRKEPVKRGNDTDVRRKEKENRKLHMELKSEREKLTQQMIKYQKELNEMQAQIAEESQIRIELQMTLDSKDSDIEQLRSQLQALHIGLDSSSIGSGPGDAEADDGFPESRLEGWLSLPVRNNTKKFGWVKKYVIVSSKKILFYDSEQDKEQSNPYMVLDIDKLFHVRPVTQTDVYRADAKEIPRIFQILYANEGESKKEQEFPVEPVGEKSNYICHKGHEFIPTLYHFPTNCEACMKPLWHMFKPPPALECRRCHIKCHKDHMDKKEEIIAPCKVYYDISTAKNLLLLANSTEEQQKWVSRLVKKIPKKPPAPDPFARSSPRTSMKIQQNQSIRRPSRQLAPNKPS

IC50 (ROCK2)	IC50 (ROCK1)	Structure (SMILES)
4 nM	11.4 nM	C[C@@H](NC(=O)c1ccc(-c2cn[nH]c2)c(OC(F)F)c1)c1ccccc1 [Example 156, 3-(difluoro-methoxy)-N-[(1R)-1-phenylethyl]-4-(1H-pyrazol-4-yl)benzamide]
3.94 nM	10.3 nM	COC[C@@H](NC(=O)c1ccc(-c2cn[nH]c2)c(OC)c1)c1ccccc1 [Example 157, 3-methoxy-N-[(1S)-2-methoxy-1-phenylethyl]-4-(1H-pyrazol-4-yl)benzamide]
6.76 nM	7.39 nM	COc1cc(C(=O)NC(C)c2cccc(O)n2)ccc1-c1cn[nH]c1 (stereo not drawn) [Example 159, N-[1-(6-hydroxypyridin-2-yl)ethyl]-3-methoxy-4-(1H-pyrazol-4-yl)benzamide]
6.94 nM	17.1 nM	O=C(N[C@H](CO)c1ccccc1)c1ccc(-c2cn[nH]c2)c(OC(F)F)c1 [Example 160, 3-(difluoro-methoxy)-N-[(1S)-2-hydroxy-1-phenylethyl]-4-(1H-pyrazol-4-yl)benzamide]
185 nM	792 nM	COc1cccc(CNC(=O)c2ccc(-c3cn[nH]c3)cc2CO)c1 [Example 161, 2-(hydroxymethyl)-N-[(3-methoxyphenyl)methyl]-4-(1H-pyrazol-4-yl)benzamide]
2.94 nM	11.7 nM	COc1cc(C(=O)NC(CO)c2ccccc2F)ccc1-c1cn[nH]c1 (stereo not drawn) [Example 162, N-[1-(2-fluorophenyl)-2-hydroxyethyl]-3-methoxy-4-(1H-pyrazol-4-yl)benzamide]
7.49 nM	22.5 nM	C[C@@H](NC(=O)c1ccc(-c2cn[nH]c2)c(OC(F)F)c1)c1ccc(F)cc1 [Example 164, 3-(difluoro-methoxy)-N-[(1R)-1-(4-fluorophenyl)ethyl]-4-(1H-pyrazol-4-yl)benzamide]
2.17 nM	7.22 nM	COc1cc(C(=O)NC(CO)c2ccccc2F)ccc1-c1cn[nH]c1 (stereo not drawn) [Example 166, N-[1-(2-fluorophenyl)-2-hydroxyethyl]-3-methoxy-4-(1H-pyrazol-4-yl)benzamide]
16.7 nM	56.5 nM	COc1cc(C(=O)NC(CO)c2ccccc2F)ccc1-c1cn[nH]c1 (stereo not drawn) [Example 167, N-[1-(2-fluorophenyl)-2-hydroxyethyl]-3-methoxy-4-(1H-pyrazol-4-yl)benzamide]
46.7 nM	130 nM	Cc1cc(C(=O)NC(C)c2cccc(O)n2)ccc1-c1cn[nH]c1 (stereo not drawn) [Example 168, N-[1-(6-hydroxypyridin-2-yl)ethyl]-3-methyl-4-(1H-pyrazol-4-yl)benzamide]
1.93 nM	4.7 nM	COc1cc(C(=O)NC(CCN(C)C)c2ccccc2)ccc1-c1cn[nH]c1 (stereo not drawn) [Example 169, N-[3-(dimethylamino)-1-phenylpropyl]-3-methoxy-4-(1H-pyrazol-4-yl)benzamide]
10.5 nM	17.5 nM	C=C[C@@H](NC(=O)c1ccc(-c2cn[nH]c2)c(OC)c1)c1c(F)cccc1F [Example 170, N-[(1R)-1-(2,6-difluorophenyl)prop-2-en-1-yl]-3-methoxy-4-(1H-pyrazol-4-yl)benzamide]
19.3 nM	34.9 nM	COc1cc(C(=O)N[C@@H](c2c(F)cccc2F)C(O)CO)ccc1-c1cn[nH]c1 (stereo partly drawn) [Example 175, N-[(1S)-1-(2,6-difluorophenyl)-2,3-dihydroxy-propyl]-3-methoxy-4-(1H-pyrazol-4-yl)benzamide]
31.9 nM	94.2 nM	COc1cc(C(=O)NC(CCN(C)C)c2ccccc2)ccc1-c1cn[nH]c1 (stereo not drawn) [Example 178, N-[3-(dimethylamino)-1-phenylpropyl]-3-methoxy-4-(1H-pyrazol-4-yl)benzamide]
7.75 nM	1.53 nM	COc1cc(C(=O)NC(CCN(C)C)c2ccccc2)ccc1-c1cn[nH]c1 (stereo not drawn) [Example 179, N-[3-(dimethylamino)-1-phenylpropyl]-3-methoxy-4-(1H-pyrazol-4-yl)benzamide]
15.3 nM	36.4 nM	CCc1ccccc1CNC(=O)c1ccc(-c2cn[nH]c2)c(OC)c1 [Example 180, N-[(2-ethylphenyl)methyl]-3-methoxy-4-(1H-pyrazol-4-yl)benzamide]
7.68 nM	2.22 nM	C[C@@H](NC(=O)c1ccc(-c2cn[nH]c2)c(O)c1)c1ccc(F)cc1 [Example 183, N-[(1R)-1-(4-fluorophenyl)ethyl]-3-hydroxy-4-(1H-pyrazol-4-yl)benzamide]

The next lines start with the compound.

Structure (SMILES)	IC50 (ROCK2)	IC50 (ROCK1)
COc1cc(C(=O)NC[C@H](O)c2ccccc2)ccc1-c1cn[nH]c1 [Example 130, N-[(2R)-2-hydroxy-2-phenylethyl]-3-methoxy-4-(1H-pyrazol-4-yl)benzamide]	33.4 nM	53.7 nM
COc1cc(C(=O)NCC(O)c2cccc(O)c2)ccc1-c1cn[nH]c1 (stereo not drawn) [Example 131, N-[2-hydroxy-2-(3-hydroxyphenyl)ethyl]-3-methoxy-4-(1H-pyrazol-4-yl)benzamide]	12.7 nM	42 nM
COc1cc(C(=O)NCC(c2ccccc2)N2CCNCC2)ccc1-c1cn[nH]c1 (stereo not drawn) [Example 132, 3-methoxy-N-[2-phenyl-2-(piperazin-1-yl)ethyl]-4-(1H-pyrazol-4-yl)benzamide]	103 nM	180 nM
COc1cc(C(=O)N[C@@H](CO)Cc2ccccc2)ccc1-c1cn[nH]c1 [Example 133, N-[(2R)-1-hydroxy-3-phenylpropan-2-yl]-3-methoxy-4-(1H-pyrazol-4-yl)benzamide]	34 nM	77.9 nM
COC(=O)c1cc(CNC(=O)c2ccc(-c3cn[nH]c3)c(OC)c2)ccc1F [Example 134, methyl 2-fluoro-5-({[3-methoxy-4-(1H-pyrazol-4-yl)phenyl] formamido}methyl)benzoate]	0.82 nM	6.53 nM
COc1cccc(C(C)NC(=O)c2ccc(-c3cn[nH]c3)c(OC)c2)n1 (stereo not drawn) [Example 135, 3-methoxy-N-[1-(6-methoxypyridin-2-yl)ethyl]-4-(1H-pyrazol-4-yl)benzamide]	16.9 nM	73.4 nM
C[C@@H](NC(=O)c1ccc(-c2cn[nH]c2)c(Cn2ccnn2)c1)c1ccccc1 [Example 137, N-[(1R)-1-phenylethyl]-4-(1H-pyrazol-4-yl)-3-(1H-1,2,3-triazol-1-ylmethyl) benzamide]	1900 nM	> 2000 nM
COc1cc(C(=O)NCc2cccc(C#N)c2)ccc1-c1cn[nH]c1 [Example 138, N-[(3-cyanophenyl)methyl]-3-methoxy-4-(1H-pyrazol-4-yl)benzamide]	8.24 nM	32.6 nM
COc1ccc(F)c(C(C)NC(=O)c2ccc(-c3cn[nH]c3)c(OC)c2)c1 (stereo not drawn) [Example 139, N-[1-(2-fluoro-5-methoxy-phenyl)ethyl]-3-methoxy-4-(1H-pyrazol-4-yl)benzamide]	47.2 nM	172 nM
COc1ccc(F)c(C(C)NC(=O)c2ccc(-c3cn[nH]c3)c(OC)c2)c1 (stereo not drawn) [Example 140, N-[1-(2-fluoro-5-methoxyphenyl)ethyl]-3-methoxy-4-(1H-pyrazol-4-yl)benzamide]	0.83 nM	3.36 nM
COc1cc(C(=O)NCc2ccc(C#N)cc2)ccc1-c1cn[nH]c1 [Example 143, N-[(4-cyanophenyl)methyl]-3-methoxy-4-(1H-pyrazol-4-yl)benzamide]	82.5 nM	365 nM
COc1cc(C(=O)NC(CCO)c2ccccc2)ccc1-c1cn[nH]c1 (stereo not drawn) [Example 145, N-(3-hydroxy-1-phenylpropyl)-3-methoxy-4-(1H-pyrazol-4-yl)benzamide]	282 nM	301 nM
COc1cc(C(=O)NC(CCO)c2ccccc2)ccc1-c1cn[nH]c1 (stereo not drawn) [Example 146, N-(3-hydroxy-1-phenylpropyl)-3-methoxy-4-(1H-pyrazol-4-yl)benzamide]	2.17 nM	7.8 nM
COc1ccc(F)c(C(C)NC(=O)c2ccc(-c3c[nH]nc3C)cc2OC)c1 (stereo not drawn) [Example 147, N-[1-(2-fluoro-5-methoxyphenyl)ethyl]-2-methoxy-4-(3-methyl-1H-pyrazol-4-yl)benzamide]	5.09 nM	23.5 nM
COc1ccc(F)c(CNC(=O)c2ccc(-c3cn[nH]c3)c(C)c2)c1 [Example 148, N-[(2-fluoro-5-methoxyphenyl)methyl]-3-methyl-4-(1H-pyrazol-4-yl)benzamide]	51.2 nM	174 nM
Cc1cc(C(=O)NCc2ccc(F)cc2Cl)ccc1-c1cn[nH]c1 [Example 149, N-[(2-chloro-4-fluorophenyl)methyl]-3-methyl-4-(1H-pyrazol-4-yl)benzamide]	11.6 nM	16.9 nM
Cc1cc(C(=O)N[C@H](C)c2ccc(F)cc2)ccc1-c1cn[nH]c1 [Example 150, N-[(1R)-1-(4-fluorophenyl)ethyl]-3-methyl-4-(1H-pyrazol-4-yl)benzamide]	18.9 nM	13.1 nM
Cc1cc(C(=O)NCc2c(F)cccc2Cl)ccc1-c1cn[nH]c1 [Example 151, N-[(2-chloro-6-fluorophenyl)methyl]-3 methyl-4-(1H-pyrazol-4-yl)benzamide]	9.83 nM	19.7 nM
COc1ccc(F)c(C(C)NC(=O)c2ccc(-c3c[nH]nc3C)cc2OC)c1 (stereo not drawn) [Example 152, N-[1-(2-fluoro-5-methoxyphenyl)ethyl]-2-methoxy-4-(3-methyl-1H-pyrazol-4-yl)benzamide]	627 nM	1510 nM
COc1cccc([C@@H](C)NC(=O)c2ccc(-c3c(C)n[nH]c3C)c(C)c2)c1 [Example 153, 4-(3,5-dimethyl-1H-pyrazol-4-yl)-N-[(1R)-1-(3-methoxyphenyl)ethyl]-3-methylbenzamide]	415 nM	> 2000 nM
C[C@@H](NC(=O)c1ccc(-c2cn[nH]c2)c(OCC(C)(C)O)c1)c1ccccc1 [Example 154, 3-(2-hydroxy-2-methylpropoxy)-N-[(1R)-1-phenylethyl]-4-(1H-pyrazol-4-yl)benzamide]	452 nM	1790 nM
COC(=O)C[C@@H](NC(=O)c1ccc(-c2cn[nH]c2)c(C)c1)c1ccccc1 [Example 155, methyl (3R)-3-{[3-methyl-4-(1H-pyrazol-4-yl)phenyl] formamido}-3-phenyl-propanoate]	70.2 nM	405 nM
